Assay results taken from patent US5114919A, “Adjuncts in cancer chemotherapy” (Merck & Co., Inc., priority 1991, dated 1992).

What was measured:
[1] = test system: KB-3 drug-sensitive cell line; test: [3H]vinblastine accumulation assay in KB-3 drug-sensitive cells; type: cell-based, human; details: 37° C., serum-free DMEM; for Accumulation of [3H]vinblastine, KB-3: Table 1, compound 20 μM, 30 minutes; for Accumulation of [3H]vinblastine, KB-3, drug preincubated (60 min): Table 2, drug preincubated 60 min, compound 20 μM
From the text: (§1) Radiolabelled compounds may also be utilized to determine the accumulation of antitumor chemotherapeutic agents in drug sensitive cells and in multidrug resistant cells. For example, the accumulation of [^3 H]vinblastine by drug sensitive cell lines and drug resistant cell lines in the presence or absence of a test compound may be determined. The relative accumulation of the radiolabelled chemotherapeutic agent is indicative of the ability of a compound to reverse multidrug resistance.
(§2) Drug Accumulation: Measurement of the accumulation of [^3 H] vinblastine in a KB-3 drug-sensitive cell line and a KB-V-1 drug-resistantcell line was performed at 37° C. in serum-free medium (DMEM). Cell monolayers were grown in 24 well dishes. [^3 H] vinblastine and different compounds (20 μM) were added to cells incubated for 30 minutes, monolayers were washed later, and drug accumulation per mg protein was assayed.

[2] = test system: KB-V-1 drug-resistant cell line; test: [3H]vinblastine accumulation assay in KB-V-1 drug-resistant cells; type: cell-based, human; details: for Accumulation of [3H]vinblastine, KB-V-1, drug preincubated (60 min): Table 2
From the text: as §1, §2

[3] = Table 1, compound 20 μM, 30 minutes, 37° C., serum-free DMEM, drug-resistant cells
[4] = compound 20 μM, 37° C., serum-free DMEM, drug-resistant cells

## COc1ccc(CCN(C)CCCC(C#N)(c2ccc(OC)c(OC)c2)C(C)C)cc1OC (stereo not drawn) [Verapamil, reference compound]
[1]
  Accumulation of [3H]vinblastine, KB-3: 4.65 ± 0.13 pmole/mg protein
  Accumulation of [3H]vinblastine, KB-3, drug preincubated (60 min): 4.71 ± 0.25 pmole/mg protein
[2]; [3]
  Accumulation of [3H]vinblastine, KB-V-1: 2.21 ± 0.18 pmole/mg protein
[2]; [4]
  Accumulation of [3H]vinblastine, KB-V-1, drug preincubated (60 min): 2.36 ± 0.21 pmole/mg protein

## Ic1ccc2c(c1)C(=C1CCN(CC3CC3)CC1)c1ccccc1C=C2 [(+)-1-cyclopropylmethyl-4-(3-iodo-5H-dibenzo[a,d]cyclohepten-5-ylidene)piperidine]
[1]
  Accumulation of [3H]vinblastine, KB-3: 7.35 ± 0.18 pmole/mg protein
[2]; [3]
  Accumulation of [3H]vinblastine, KB-V-1: 2.91 ± 0.25 pmole/mg protein

## CCOC(=O)C1=C(C)NC(C)=C(C(=O)OCC)C1c1ccc2c(c1)C(=C1CCN(C)CC1)c1ccccc1C=C2 [Diethyl 1,4-dihydro-2,6-dimethyl-4-(5-(1-methyl-4-piperidinylidene)-5H-dibenzo[a,d]cyclohepten-3-yl)pyridine dicarboxylate]
[1]
  Accumulation of [3H]vinblastine, KB-3: 3.32 ± 0.09 pmole/mg protein
[2]; [3]
  Accumulation of [3H]vinblastine, KB-V-1: 2.13 ± 0.15 pmole/mg protein

## COc1cc(C(=O)NCc2ccc3c(c2)C(=C2CCN(C)CC2)c2ccccc2C=C3)cc(OC)c1OC [3,4,5-Trimethoxy-N-((5-(1-methyl-4-piperidinylidene)-5H-dibenzo[a,d]cyclohepten-3-yl)methyl)benzamide]
[1]
  Accumulation of [3H]vinblastine, KB-3: 8.15 ± 0.44 pmole/mg protein
  Accumulation of [3H]vinblastine, KB-3, drug preincubated (60 min): 3.67 ± 0.32 pmole/mg protein
[2]; 20 µM
  Accumulation of [3H]vinblastine, KB-V-1: 3.31 ± 0.25 pmole/mg protein
[2]; [4]
  Accumulation of [3H]vinblastine, KB-V-1, drug preincubated (60 min): 3.57 ± 0.16 pmole/mg protein

## COc1cc(N)c(Cl)cc1C(=O)NCc1ccc2c(c1)C(=C1CCN(C)CC1)c1ccccc1C=C2 [4-Amino-5-chloro-2-methoxy-N-((5-(1-methyl-4-piperidinylidene)-5H-dibenzo[a,d]cyclohepten-3-yl)methyl)benzamide]
[1]
  Accumulation of [3H]vinblastine, KB-3: 3.47 ± 0.15 pmole/mg protein
[2]; [3]
  Accumulation of [3H]vinblastine, KB-V-1: 3.47 ± 0.26 pmole/mg protein

## FC(F)(F)Sc1ccc2c(c1)C(=C1CCN(CC3CC3)CC1)c1ccccc1C=C2 [(-)-1-cyclopropylmethyl-4-(3-trifluoromethylthio-5H-dibenzo[a,d]cyclohepten-5-ylidene)piperidine]
[1]
  Accumulation of [3H]vinblastine, KB-3: 11.65 ± 0.11 pmole/mg protein
  Accumulation of [3H]vinblastine, KB-3, drug preincubated (60 min): 10.16 ± 0.41 pmole/mg protein
[2]; [3]
  Accumulation of [3H]vinblastine, KB-V-1: 0.91 ± 0.04 pmole/mg protein
[2]; [4]
  Accumulation of [3H]vinblastine, KB-V-1, drug preincubated (60 min): 1.85 ± 0.11 pmole/mg protein
